Where two headings read alike, the source gives them in different places.
Assays:
hCK2α = molecular target: T1, hCK2α (Homo sapiens, UniProt P68400); assay: In vitro inhibition of hCK2α, ADP-Glo kinase assay; assay type: biochemical; details: 10 μM ATP, 10 μM peptide […], 20 min at 30 °C
T1 construct: made in house; host or cells: Escherichia coli BL21(DE3), plasmid pET28
Description: The compound inhibitory activity was monitored based on the luminescence measured with the SpectraMax iD3 Multi-Mode Microplate Reader (Molecular Devices, San Jose, CA, USA), using the previously described method with the aid of ADP-Glo kinase assay (Promega, Walldorf, Germany)[35]. The measurements were carried in 96-well plate in volume of 25 μl in 20 mM Tris–HCl buffer (pH 7.5), containing 100 ng of hCK2α (1 μl), 10 μM CK2 substrate peptide […] (Biaffin GmbH & Co KG), 10 μM ATP, 20 mM MgCl2 and 2.5 μl of ligand serially diluted in DMSO. The reaction was initiated by adding the enzyme and kept going for 20 min at 30 °C.

[1] = system: mitochondrial inner membrane potential (ΔΨ); assay: Mitochondrial inner membrane potential, Rhodamine 123 fluorescence quenching in isolated mitochondria; details: for ligand concentration required to recover 50% of the initial fluorescence drop: Rhodamine 123, yeast mitochondria energized with EtOH, normalized to CCCP; for ligand concentration at which relative fluorescence c.a. 0.95 was reached / ligand concentration at which the membrane potential is almost fully uncoupled: Rhodamine 123, yeast mitochondria; for ligand concentration at which relative fluorescence c.a. 0.95 was reached: 1 = fully uncoupled (CCCP)
Excerpt: In response to variations in ΔΨ this dye accumulates proportionally inside the mitochondrial matrix, where its fluorescence is quenched, thus fluorescence changes reflect the changes in the IM potential[33],[34]. […] All the data were normalized relative to the fluorescence intensity after addition CCCP (set to 1).
To quantify the effect of ligand addition we have compared the ligand concentrations required to recover 50% of the initial fluorescence drop (dotted line), i.e. the average of value after addition of EtOH and fully decoupled ΔΨ.
At the end of each experiment the carbonyl cyanide-m-chlorophenyl hydrazone (CCCP, the IM potential uncoupler) was added at 4 μM for the normalization.

[2] = Dynamic light scattering (DLS), aggregation in aqueous medium; assay type: physicochemical; details: 25 mM Tris–HCl pH 8, 0.5 M NaCl, 2% DMSO, 25 °C
Description: Experiments were carried out at 25 °C with the DynaPro NanoStar 192-DPN apparatus (Wyatt Technology) equipped with 661 nm laser. The autocorrelation function for the light scattered by solute placed in Eppendorf disposable cuvettes (50–2000 μl) was measured in the range of 0.5 μs– 0.1 s at solute concentration for which short-time ACF signal approached 0.2. Solutions with 2% (v/v) DMSO content were prepared in 25 mM Tris–HCl (pH 8, 0.5 M NaCl) filtered with 220 nm pore size syringe filter. All samples were centrifuged (9000 g) for 3 min immediately before the experiment.

[3] = system: A-431 (epidermoid carcinoma); assay: Cell viability, MTT assay; details: read-out: Cell viability data, IC50
[4] = system: HEPG2 (hepatocellular carcinoma); assay: Cell viability, MTT assay; details: read-out: Cell viability data, IC50
[5] = system: HCT116 (colorectal carcinoma); assay: Cell viability, MTT assay; details: read-out: Cell viability data, IC50
[6] = system: HCT116p53-/- (colorectal carcinoma); assay: Cell viability, MTT assay; details: 72 h, read-out: Cell viability data, IC50
[7] = molecular target: T2, catalytic subunit of human protein kinase CK2 (hCK2α) (Homo sapiens, UniProt P68400); assay: Isothermal titration calorimetry (ITC), reverse mode
T2 sequence (P68400 whole entry): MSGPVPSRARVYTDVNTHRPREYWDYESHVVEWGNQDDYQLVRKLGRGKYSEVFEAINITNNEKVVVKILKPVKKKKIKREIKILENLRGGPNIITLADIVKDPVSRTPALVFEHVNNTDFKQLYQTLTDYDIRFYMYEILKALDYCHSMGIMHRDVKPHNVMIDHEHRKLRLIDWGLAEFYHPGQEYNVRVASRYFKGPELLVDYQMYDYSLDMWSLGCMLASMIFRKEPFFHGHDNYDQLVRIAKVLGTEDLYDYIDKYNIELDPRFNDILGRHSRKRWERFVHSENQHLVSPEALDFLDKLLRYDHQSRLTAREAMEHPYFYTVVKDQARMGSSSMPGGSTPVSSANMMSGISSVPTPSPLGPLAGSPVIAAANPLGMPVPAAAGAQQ

[8] = molecular target: T2, catalytic subunit of human protein kinase CK2 (hCK2α); assay: Microscale thermophoresis (MST) pseudo-titration; assay type: binding; parameters: made in house; host or cells: Escherichia coli BL21(DE3), plasmid pET28
Description: Samples of protein (50 nM in 25 mM Hepes buffer pH 8 with 0.5 M NaCl and 1%DMSO content v/v) labeled with Monolith His-Tag Labeling Kit RED-tris-NTA kit (NanoTemper Technologies) were prepared with varying ligand concentration according to previously described protocol. The measurements were performed using Monolith NT.115 (NanoTemper Technologies) apparatus in standard capillaries (Nanotemper Technologies). For each ligand six independent pseudo-titration experiments, each with 16 ligand dilutions, were performed. […] The model of two independent binding sites, implemented in origin, has been already described and tested. It is worth noting that the used method of data treatment goes beyond the standard MST software capabilities.

[9] = molecular target: T2, catalytic subunit of human protein kinase CK2 (hCK2α); parameters: made in house; host or cells: Escherichia coli BL21(DE3), plasmid pET28; details: DSF, binding to hCK2α, cited from earlier work
[10] = second, weak site (solvent exposed region at alpha/beta interface), read-out: Kd2
[11] = strongly binding site (ATP-binding site), pH 8, 0.5 M NaCl, 1% DMSO, read-out: Kd1

T1 sequence (P68400 whole entry): as above

## Brc1c(I)c(I)c(Br)c2[nH]nnc12 [BIIB, 4,7-dibromo-5,6-diiodo-1H-benzotriazole]
hCK2α
  IC50: 0.23 ± 0.15 µM
[1]
  ligand concentration required to recover 50% of the initial fluorescence drop: less than 2 µM
  ligand concentration at which relative fluorescence c.a. 0.95 was reached: ~4 µM
[2]
  solute concentration at which the similar ACF distribution (nano-aggregates, radius 50–100 nm) was observed: 40 µM
[3]; Homo sapiens, A-431, 72 h
  IC50: 2.2 ± 0.3 µM
[4]; Homo sapiens, HepG2, 72 h
  IC50: 1.5 ± 0.3 µM
[5]; Homo sapiens, HCT-116, 72 h
  IC50: 1.8 ± 0.3 µM
[6]; Homo sapiens
  IC50: 2.5 ± 0.2 µM
[7]
  Kd: 0.0013 ± 0.0014 µM
[7]; ITC, 25 °C, strongly binding site
  ΔS1: 123 ± 10 J/mol/K
[7]; ITC, second site
  ΔS2: 93 ± 5 J/mol/K
[7]; read-out: Kd2, ITC, second site (solvent exposed region at alpha/beta interface)
  Kd: 0.082 ± 0.042 µM
[8]; [10]
  Kd: 0.043 ± 0.022 µM
[8]; [11]
  Kd: 0.003 ± 0.006 µM
[9]; literature data ref 20
  ΔTm: 10.8 ± 0.1[20] K

## Brc1cc2nn[nH]c2cc1Br [HBBH, 5,6-dibromo-1H-benzotriazole, reference compound]
hCK2α
  IC50: 1.19 ± 0.53 µM
[1]
  ligand concentration at which the membrane potential is almost fully uncoupled: ~15 µM
  ligand concentration required to recover 50% of the initial fluorescence drop: > 5 µM
  ligand concentration at which relative fluorescence c.a. 0.95 was reached: ~12 µM
[2]
  solute concentration at which the similar ACF distribution (nano-aggregates, radius 50–100 nm) was observed: 160 µM
[3]; Homo sapiens, A-431, 72 h
  IC50: 12 ± 2 µM
[4]; Homo sapiens, HepG2, 72 h
  IC50: 18 ± 4 µM
[5]; Homo sapiens, HCT-116, 72 h
  IC50: 19 ± 6 µM
[6]; Homo sapiens
  IC50: 13 ± 3 µM
[7]
  Kd: 0.034 ± 0.004 µM
[8]; [10]
  Kd: 0.327 ± 0.095 µM
[8]; [11]
  Kd: 0.029 ± 0.013 µM
[9]; literature data ref 18
  ΔTm: 7.4 ± 0.1[18] K

## Ic1cc2nn[nH]c2cc1I [HIIH, 5,6-diiodo-1H-benzotriazole]
hCK2α
  IC50: 0.78 ± 0.29 µM
[1]
  ligand concentration at which the membrane potential is almost fully uncoupled: ~15 µM
  ligand concentration required to recover 50% of the initial fluorescence drop: > 5 µM
  ligand concentration at which relative fluorescence c.a. 0.95 was reached: ~12 µM
[3]; Homo sapiens, A-431, 72 h
  IC50: 5.3 ± 0.7 µM
[4]; Homo sapiens, HepG2, 72 h
  IC50: 3.3 ± 0.4 µM
[5]; Homo sapiens, HCT-116, 72 h
  IC50: 6.1 ± 1.3 µM
[6]; Homo sapiens
  IC50: 9.4 ± 1.4 µM
[7]
  Kd: 0.022 ± 0.004 µM
[8]; [10]
  Kd: 0.374 ± 0.083 µM
[8]; [11]
  Kd: 0.015 ± 0.007 µM
[9]; literature data ref 20
  ΔTm: 8.3 ± 0.1[20] K

## Brc1c(Br)c(Br)c2[nH]nnc2c1Br [TBBt, 4,5,6,7-tetrabromo-1H-benzotriazole]
[3]; Homo sapiens, A-431, 72 h
  IC50: 7.8 ± 1.2 µM
[4]; Homo sapiens, HepG2, 72 h
  IC50: 13 ± 2 µM
[5]; Homo sapiens, HCT-116, 72 h
  IC50: 23 ± 9 µM
[6]; Homo sapiens
  IC50: 48 ± 18 µM

## N.N.[Cl][Pt][Cl] [cisPt, cisplatin]
[3]; A-431, MTT, 72 h, fitted to restricted low-concentration data
  IC50: 2.02 ± 0.06 µM
[4]; HEPG2, MTT, 72 h, fitted to restricted low-concentration data
  IC50: 2.43 ± 0.14 µM
[5]; HCT116, MTT, 72 h, fitted to restricted low-concentration data
  IC50: 4.7 ± 0.6 µM
[6]; HCT116p53-/-, MTT, fitted to restricted low-concentration data
  IC50: 2.94 ± 0.13 µM

Reference: paper PMC8654832 (Scientific Reports, 2021)
